The target in this experiment is EAAT2 (Homo sapiens, UniProt P43004). The experiment in a line: Inhibition of [14C]-glutamic acid uptake by EAAT2 expressed in MDCK or COS-1 cells. The class given is cell-based. The settings on record: glutamate transporter, subtype not given. On the set-up: expressed in transfected cells. The method, then:
In accordance with a known method (Shimamoto, K. et al., Mol. Pharmacol. 53, 195-201, 1998; Bioorg. Med. Chem. Lett. 10, 2407-2410, 2000), the inhibitory activity was assayed as the ability to inhibit the uptake of [^14C]-glutamic acid by human EAAT2 and EAAT3 stably expressed in MDCK (Madin-Darby canine kidney) cells or transiently expressed in COS-1 cells. The glutamate uptake activity was assayed by incubating a mixture of 1 μM of L-[^14C]-glutamic acid with a sample compound at a predetermined concentration for 12 minutes, lysing the cells and then measuring the radioactivity incorporated into the cells with a liquid scintillator. The amount of uptake was expressed in percentage by referring the amount of uptake in the absence of a test compound (i.e., the buffer alone) as 100% and referring the amount of uptake in a sodium-free solution as 0%.

We go through one compound from US8097654B2, “Radiolabeled 3-[3-(benzoyl-amido)benzyloxy]aspartic acid derivative and method of producing the same” (Suntory Holdings Limited, priority 2004, dated 2012).

EAAT2, sequence (P43004 whole entry): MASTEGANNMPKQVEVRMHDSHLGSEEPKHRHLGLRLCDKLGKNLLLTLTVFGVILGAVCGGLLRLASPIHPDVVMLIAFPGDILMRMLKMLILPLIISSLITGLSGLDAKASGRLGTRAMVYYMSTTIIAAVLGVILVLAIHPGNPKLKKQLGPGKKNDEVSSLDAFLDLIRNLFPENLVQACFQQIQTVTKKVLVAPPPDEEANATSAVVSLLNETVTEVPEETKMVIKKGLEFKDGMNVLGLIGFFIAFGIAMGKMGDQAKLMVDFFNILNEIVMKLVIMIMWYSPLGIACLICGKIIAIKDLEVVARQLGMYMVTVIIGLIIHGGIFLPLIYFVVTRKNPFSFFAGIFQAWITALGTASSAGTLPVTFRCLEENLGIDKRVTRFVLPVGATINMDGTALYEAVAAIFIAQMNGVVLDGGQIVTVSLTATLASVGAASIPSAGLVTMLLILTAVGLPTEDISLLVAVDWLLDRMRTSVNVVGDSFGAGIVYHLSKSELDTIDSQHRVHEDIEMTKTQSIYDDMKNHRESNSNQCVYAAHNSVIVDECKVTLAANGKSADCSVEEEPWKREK

Turning to `N[C@H](C(=O)O)[C@H](OCc1cccc(NC(=O)c2ccc(F)cc2)c1)C(=O)O` [F-BzA-TBOA], the “IC50 for glutamate transporter (in words)” value is reported as “several ten nM order”.
